Assay results from PubChem BioAssay (NCI).
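Method: 48-hour compound exposure of cells in 96-well plates, five concentrations, linear interpolation of endpoints. At the GI50, growth is halved. The concentration for full growth arrest is given as TGI.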

Each compound was assayed on NCI/ADR-RES ovarian (assay: NCI-60 cell line screen, 48 h).

Row | Compound | GI50 [µM] | TGI [µM]
1 | CC(=O)c1c(C(F)(F)F)n([O-])c2ccc(C)cc2[n+]1=O | 3.34 | > 35.5
2 | N/N=C1\CC(=O)NC(=O)N1 | – | > 100
3 | COc1ccc(/C=N/NC(=O)Cn2c(-c3ccc(S(C)(=O)=O)cc3)nc3cc(Cl)ccc32)cc1 | 0.956 | > 50
4 | COc1cc2c(c(OC)c1OC)-c1ccc(SC)c(=O)cc1[C@@H](NC1OC(CO)C(O)C(O)C1O)CC2 (some centres undefined) | 0.0556 | > 100
5 | CCOc1nc(N)nc(C)c1N=Nc1ccc(Cl)cc1 | – | > 100
6 | CCN(Cc1ccc(Cl)s1)c1ccc(CO)c(Cl)c1 | 10.4 | 47.1
7 | Nc1ccccc1SCc1csc(-c2ccc(Cl)cc2)n1 | – | 66.4
8 | CSC(=S)N/N=C(\C)c1cccc(C)n1 | – | > 36.3
9 | N#Cc1c(N)[nH]c2ccc(Sc3ccccc3)cc12 | – | 10.2
10 | CCN1C(=O)N(CC)C2C1NN=c1s/c(=C\c3ccccc3Br)c(=O)n12 (centres undefined) | 0.0228 | 15.3
11 | O=C(O)COc1c(Cl)cc(Cl)c2cccnc12 | – | > 100
12 | CC(C)(C)c1ccc(C(=O)Nc2sc3c(c2C(N)=O)CCC(=O)C3)cc1 | 1.47 | 5.53
13 | O=C(Nc1cccc(Nc2ncc(Br)c(NCCc3cnc[nH]3)n2)c1)N1CCCC1 | > 66.7 | > 100
14 | C[C@@H]1O[C@@H](O[C@H]2CC[C@@]3(C)[C@H](CCC4[C@@H]3C(O)C[C@]3(C)[C@@H](c5ccc(=O)oc5)CC[C@]43O)C2)[C@H](O)[C@H](O)[C@H]1O (some centres undefined) | < 0.00325 | 0.00578
15 | CN1CCC(n2cnc(-c3ccc(F)cc3)c2-c2ccnc(N)n2)CC1 | 7.55 | > 25
16 | COc1cc(/C=C/[N+](=O)[O-])cc(Br)c1OC | 3.62 | 19.5
17 | CN(CC(N)=O)C(=O)N(CCCl)N=O | – | > 100
18 | CC(C)=CCC/C(C)=C/CC/C(C)=C/CC/C=C(\C)CC/C=C(\C)CCC(=O)Nc1ccn(C2OC(CO)C(O)C2(F)F)c(=O)n1 (centres undefined) | 0.116 | 16.6
19 | CC(C)(C)CN1CCn2c(nc3c(N)nccc32)S1 | 17.1 | > 100
20 | Cc1c(C2=C(c3cn(C)c4ccccc34)C(=O)NC2=O)c2ccccc2n1C | 3.65 | > 25
21 | CC1(C)CCC[C@]2(C)[C@@H](C=O)C(C=O)=CC[C@@H]12 | – | 40.8

These compounds were tested on RPMI-8226 leukemia (assay: NCI-60 cell line screen, 48 h).

Row | Compound | GI50 [µM] | TGI [µM]
22 | CC(=O)c1c(C(F)(F)F)n([O-])c2ccc(C)cc2[n+]1=O | 0.686 | 4.04
23 | N/N=C1\CC(=O)NC(=O)N1 | – | > 100
24 | COc1ccc(/C=N/NC(=O)Cn2c(-c3ccc(S(C)(=O)=O)cc3)nc3cc(Cl)ccc32)cc1 | 1.43 | 11.4
25 | COc1cc2c(c(OC)c1OC)-c1ccc(SC)c(=O)cc1[C@@H](NC1OC(CO)C(O)C(O)C1O)CC2 (some centres undefined) | 0.0444 | > 100
26 | CCOc1nc(N)nc(C)c1N=Nc1ccc(Cl)cc1 | – | 88.4
27 | CCN(Cc1ccc(Cl)s1)c1ccc(CO)c(Cl)c1 | 1.41 | 24.5
28 | Nc1ccccc1SCc1csc(-c2ccc(Cl)cc2)n1 | – | 44.7
29 | CSC(=S)N/N=C(\C)c1cccc(C)n1 | – | 1.51
30 | N#Cc1c(N)[nH]c2ccc(Sc3ccccc3)cc12 | – | 8.65
31 | CCN1C(=O)N(CC)C2C1NN=c1s/c(=C\c3ccccc3Br)c(=O)n12 (centres undefined) | 0.0333 | 8.76
32 | O=C(O)COc1c(Cl)cc(Cl)c2cccnc12 | – | > 100
33 | CC(C)(C)c1ccc(C(=O)Nc2sc3c(c2C(N)=O)CCC(=O)C3)cc1 | 0.158 | 0.581
34 | O=C(Nc1cccc(Nc2ncc(Br)c(NCCc3cnc[nH]3)n2)c1)N1CCCC1 | 3.9 | 19.5
35 | C[C@@H]1O[C@@H](O[C@H]2CC[C@@]3(C)[C@H](CCC4[C@@H]3C(O)C[C@]3(C)[C@@H](c5ccc(=O)oc5)CC[C@]43O)C2)[C@H](O)[C@H](O)[C@H]1O (some centres undefined) | 0.00792 | 0.0278
36 | CN1CCC(n2cnc(-c3ccc(F)cc3)c2-c2ccnc(N)n2)CC1 | 16.6 | > 25
37 | COc1cc(/C=C/[N+](=O)[O-])cc(Br)c1OC | 2.59 | 6.64
38 | CN(CC(N)=O)C(=O)N(CCCl)N=O | – | > 100
39 | CC(C)=CCC/C(C)=C/CC/C(C)=C/CC/C=C(\C)CC/C=C(\C)CCC(=O)Nc1ccn(C2OC(CO)C(O)C2(F)F)c(=O)n1 (centres undefined) | 0.122 | 2.49
40 | CC(C)(C)CN1CCn2c(nc3c(N)nccc32)S1 | 36.1 | > 100
41 | Cc1c(C2=C(c3cn(C)c4ccccc34)C(=O)NC2=O)c2ccccc2n1C | > 13.8 | > 25
42 | CC1(C)CCC[C@]2(C)[C@@H](C=O)C(C=O)=CC[C@@H]12 | – | 31.4

These compounds were tested on T-47D breast (assay: NCI-60 cell line screen, 48 h).

Row | Compound | GI50 [µM] | TGI [µM]
43 | CC(=O)c1c(C(F)(F)F)n([O-])c2ccc(C)cc2[n+]1=O | 6.52 | > 67.1
44 | N/N=C1\CC(=O)NC(=O)N1 | – | > 100
45 | COc1ccc(/C=N/NC(=O)Cn2c(-c3ccc(S(C)(=O)=O)cc3)nc3cc(Cl)ccc32)cc1 | 3.22 | > 50
46 | COc1cc2c(c(OC)c1OC)-c1ccc(SC)c(=O)cc1[C@@H](NC1OC(CO)C(O)C(O)C1O)CC2 (some centres undefined) | > 74.9 | > 100
47 | CCOc1nc(N)nc(C)c1N=Nc1ccc(Cl)cc1 | – | > 100
48 | CCN(Cc1ccc(Cl)s1)c1ccc(CO)c(Cl)c1 | 0.121 | 0.582
49 | Nc1ccccc1SCc1csc(-c2ccc(Cl)cc2)n1 | – | 23.4
50 | CSC(=S)N/N=C(\C)c1cccc(C)n1 | – | > 67.5
51 | N#Cc1c(N)[nH]c2ccc(Sc3ccccc3)cc12 | – | 23
52 | CCN1C(=O)N(CC)C2C1NN=c1s/c(=C\c3ccccc3Br)c(=O)n12 (centres undefined) | 13.5 | 57.9
53 | O=C(O)COc1c(Cl)cc(Cl)c2cccnc12 | – | > 100
